Laboratory results reported in patent US9822414B2, “In vitro method for predicting in vivo genotoxicity of chemical compounds” (priority 2011, dated 2017).
“And” between values parts separate entries of the source, which are not always exact repeats. Equal values may be shown once. Read-outs that look alike come from different tables or passages of the source.

What was measured:
SLC40A1 = assay: Gene expression of SLC40A1 in HepG2 cells exposed to compound (microarray, log2 treatment:control ratio); format: cell-based, human; conditions: for Log2 treatment: control ratio SLC40A1: 24 h exposure, Ames negative compounds, one line per replicate of triplicate experiments
PNMA6A = assay: Gene expression of PNMA6A in HepG2 cells exposed to compound (microarray, log2 treatment:control ratio); format: cell-based, human; conditions: for Log2 treatment: control ratio PNMA6A: 24 h exposure, Ames negative compounds, one line per replicate of triplicate experiments
C10orf65/HOGA1 = assay: Gene expression of C10orf65/HOGA1 in HepG2 cells exposed to compound (microarray, log2 treatment:control ratio); format: cell-based, human; conditions: for Log2 treatment: control ratio C10orf65/HOGA1: 24 h exposure, Ames negative compounds, one line per replicate of triplicate experiments; for C10orf65/HOGA1: expression versus reference value, single measurement of three
Salmonella typhimurium = conditions: cited from earlier work
rodents = conditions: cited from earlier work
[1] = system: conventional in vitro genotoxicity assays; conditions: cited from earlier work
[2] = HepG2 cells, expression versus reference value, single measurement of three
[3] = standard in vivo genotoxicity designation

Row | Structure (SMILES) | Log2 treatment: control ratio SLC40A1 (SLC40A1; HepG2 cells) | Log2 treatment: control ratio PNMA6A (PNMA6A; HepG2 cells) | Log2 treatment: control ratio C10orf65/HOGA1 (C10orf65/HOGA1) | Average result over three measurements (HepG2 cell) | Prediction (class prediction results using the method of the invention) (HepG2 cell) | In vivo GTX (rodents; in vivo) | Standard (rodents; in vivo) | In vitro GTX [1] | SLC40A1 (SLC40A1; [2]) | PNMA6A (PNMA6A; [2]) | C10orf65/HOGA1 (C10orf65/HOGA1) | At least ⅔ genes +? (HepG2 cell) | other results
1 | C=CCc1ccc(O)c(OC)c1 [EuG] | 0.161 and 0.712 and 0.293 | 0.39 and 0.124 and 0.031 | −0.156 and 0.3 and −0.066 | NGTX | NGTX+ | − | NGTX | + |  |  |  |  | Ames (Salmonella typhimurium; Ames results based on NTP data): −
2 | ClC1C(Cl)C(Cl)C(Cl)C(Cl)C1Cl (stereo not drawn) [HCH] | 0.334 and 0.924 and 0.712 | −0.604 and −0.2 and 0.012 | −0.367 and −0.143 and −0.165 | NGTX | NGTX |  | NGTX |  | + (above the reference value) | − (below the reference value) | − (below the reference value) | NGTX | 
3 | CO[C@@]12[C@H](COC(N)=O)C3=C(C(=O)C(C)=C(N)C3=O)N1C[C@@H]1N[C@@H]12 [MMC] |  |  |  |  |  | + |  |  |  |  |  |  | 
4 | O=[N+]([O-])c1ccccc1 [NBZ] |  |  |  |  |  | − | NGTX | − | − (below the reference value) |  |  |  | 
5 | Oc1c(Cl)c(Cl)c(Cl)c(Cl)c1Cl [PCP] |  |  |  |  |  |  |  |  |  | − (below the reference value) | − (below the reference value) |  | Standard (rodents; [3]): NGTX
6 | Oc1ccccc1 [Ph, Phenol] |  |  |  | GTX | GTX | + | GTX | + |  |  |  | GTX | SLC40A1 (SLC40A1): + (key: +: above the reference value; −: below the reference value); PNMA6A (PNMA6A): + (key: +: above the reference value; −: below the reference value); Ames (Salmonella typhimurium): −
7 | CC(=O)[C@H]1CC[C@H]2[C@@H]3CCC4=CC(=O)CC[C@]4(C)[C@H]3CC[C@]12C [Prog] |  |  |  |  |  | − | NGTX |  | − (below the reference value) | − (below the reference value) |  |  | 
8 | COC(=O)[C@H]1[C@H]2C[C@@H]3c4[nH]c5cc(OC)ccc5c4CCN3C[C@H]2C[C@@H](OC(=O)c2cc(OC)c(OC)c(OC)c2)[C@@H]1OC [Res] | 0.398 and −0.212 and −0.057 | 0.09 and −0.624 and 0.288 | 0.047 and 6.45E−05 and −0.043 | NGTX | NGTX | − | NGTX | − |  |  | − (below the reference value) | NGTX | Ames (Salmonella typhimurium; Ames results based on NTP data): −
9 | CCNc1nc(Cl)nc(NCC)n1 [Sim] | −0.601 and −0.1 and −0.245 | 0.246 and 0.186 and 0.202 | 0.22 and 0.14 and 0.155 | NGTX | NGTX | − | NGTX | − | − (below the reference value) | − (below the reference value) |  | NGTX | Classification of NGTX compounds by the method of the invention (false positives) (HepG2 cell): misclassification; Ames (Salmonella typhimurium; Ames results based on NTP data): −
10 | Cc1noc(NS(=O)(=O)c2ccc(N)cc2)c1C [Sulfi] |  |  |  |  |  | − | NGTX |  |  | − (below the reference value) | − (below the reference value) |  | 
11 | O=C1O[C@H]([C@@H](O)CO)C(O)=C1O [VitC] |  |  |  | GTX | GTX |  |  |  |  | + (above the reference value) | + (above the reference value) | GTX | In vivo GTX (rodents; positive when at least one in vivo assay (MN, CA) positive, equivocal considered positive): +; Standard (rodents; [3]): GTX
12 | CC1(C)S[C@@H]2[C@H](NC(=O)[C@H](N)c3ccccc3)C(=O)N2[C@H]1C(=O)O.O.O.O [ampC] |  |  |  |  |  |  |  |  | − (below the reference value) |  | − (below the reference value) |  | Standard (rodents; [3]): NGTX
13 | Cl[C@H]1[C@H](Cl)[C@@H](Cl)[C@@H](Cl)[C@H](Cl)[C@H]1Cl [γ-HCH] |  |  |  |  |  | − |  | − |  |  |  |  | Ames (Salmonella typhimurium): −
